From US5041445A, “3-[1-thiazolidinylbutyl-4-piperazinyl]-1H-indazoles” (Hoechst-Roussel Pharmaceuticals Incorporated, priority 1990, dated 1991) come the findings set out here.

The test relates to apomorphine climbing. Put plainly: Climbing Mouse Assay (CMA), antagonism of apomorphine-induced climbing. It counts as in vivo, CK-1 male mice. Conditions: linear regression, read-out: Climbing Mice Assay ED50. The source says: The compounds of the present invention are potentially useful as antipsychotic agents as determined in the Climbing Mouse Assay (CMA).
The Climbing Mouse Assay is described by P. Protais, et al., Psychopharmacol., 50, 1 (1976) and B. Costall, Eur. J. Pharmacol., 50, 39 (1978).
The subject CK-1 male mice (23-27 grams) are group-housed under standard laboratory conditions. The mice are individually placed in wire mesh stick cages (4"×4" by 10") and are allowed one hour for adaptation and exploration of the new environment. The apomorphine is injected subcutaneously at 1.5 mg/kg, a dose causing climbing in all subjects for 30 minutes. Compounds to be tested for antipsychotic activity are injected intraperitoneally (i.p.) 30 minutes prior to the apomorphine challenge at a screening dose of 10 mg/kg.
For evaluation of climbing, 3 readings are taken at 10, 20 and 30 minutes after apomorphine administration according to the following scale: […]
______________________________________
4 paws on bottom (no climbing)
2 paws on the wall (rearing)
4 paws on the wall (full climb)
Mice consistently climbing before the injection of apomorphine are discarded.
With full-developed apomorphine climbing, the animals are hanging onto the cage walls, rather motionless, over longer periods of time. By contrast, climbs due to mere motion stimulation usually last only a few seconds.
The climbing scores are individually totaled (maximum score: 6 per mouse over 3 readings) and the total score of the control group (vehicle intraperitoneally; apomorphine subcutaneously) is set to 100%. ED50 values with 95% confidence limits, calculated by linear regression analyses of some of the compounds of this invention are presented in Table 1.

The mark [1] stands for this setting: ip, 30 minutes prior to apomorphine 1.5 mg/kg s.c.

SMILES strings stand for the structures. Like-named read-outs stand apart in the source and are kept apart here.

The term ED50 denotes the dose at which the effect has come halfway, by size or by number of responders.

As to `CN1CCN(C2=Nc3cc(Cl)ccc3Nc3ccccc32)CC1` [Clozapine, reference compound], the ED50 under setting [1] came out at 8.1 mg/kg.

Take `O=C1N(CCCCN2CCN(c3n[nH]c4ccccc34)CC2)CSC12CCCCC2` [3-(4-(1-[1H-indazol-3-yl]-4-piperazinyl)butyl)-1-thia-3-azaspiro[4.5]decan-4-one]: the ED50 under setting [1] was 0.65 mg/kg. On to `O=C1N(CCCCN2CCN(c3n[nH]c4cc(F)ccc34)CC2)CSC12CCCCC2` [3-{4-[1-(6-Fluoro-1H-indazol-3-yl)-4-piperazinyl]butyl}-1-thia-3-azaspiro[4.5]decan-4-one], for which the ED50 is 0.04 mg/kg under setting [1] and 0.67 mg/kg (po, apomorphine 1.5 mg/kg s.c.). As to `CC1(C)SCN(CCCCN2CCN(c3n[nH]c4ccccc34)CC2)C1=O` [3-(4-(1-[1H-Indazol-3-yl]-4-piperazinyl)-butyl)-5,5-dimethyl-4-thiazolidinone], under setting [1], the ED50 is 1.3 mg/kg. As for `O=C1N(CCCCN2CCN(c3n[nH]c4ccccc34)CC2)CSC12CCCC2` [3-(4-(1-[1H-Indazol-3-yl]-4-piperazinyl)butyl)-1-thia-3-azaspiro[4.4]nonan-4-one], the ED50 reads like this: under setting [1], 1.3 mg/kg; (po, apomorphine 1.5 mg/kg s.c.) 2.7 mg/kg. Take `CC1SCN(CCCCN2CCN(c3n[nH]c4cc(F)ccc34)CC2)C1=O` (centres unmarked) [3-{4-[1-(6-Fluoro-1H-indazol-3-yl)-piperazinyl]butyl}-5-methyl-4-thiazolidinone]: the ED50 under setting [1] worked out at 0.11 mg/kg.
